From ChEMBL document CHEMBL1148572, “1-((S)-2-aminopropyl)-1H-indazol-6-ol: a potent peripherally acting 5-HT2 receptor agonist with ocular hypotensive activity” (J Med Chem, 2006)

Columns and labels:
[1] = molecular target: Glutamate receptor ionotropic AMPA (Homo sapiens) (UniProt P48058+P42263+P42262+P42261); experiment: Inhibition of AMPA receptor at 1 nM; assay type: protein-complex assay
[2] = molecular target: T1, monoamine oxidase B (MAO-B) (Rattus norvegicus, UniProt P19643); experiment: Inhibition of monoamine oxidase B in rat brain at 1 nM; assay type: tissue-based
T1 sequence (P19643 whole entry): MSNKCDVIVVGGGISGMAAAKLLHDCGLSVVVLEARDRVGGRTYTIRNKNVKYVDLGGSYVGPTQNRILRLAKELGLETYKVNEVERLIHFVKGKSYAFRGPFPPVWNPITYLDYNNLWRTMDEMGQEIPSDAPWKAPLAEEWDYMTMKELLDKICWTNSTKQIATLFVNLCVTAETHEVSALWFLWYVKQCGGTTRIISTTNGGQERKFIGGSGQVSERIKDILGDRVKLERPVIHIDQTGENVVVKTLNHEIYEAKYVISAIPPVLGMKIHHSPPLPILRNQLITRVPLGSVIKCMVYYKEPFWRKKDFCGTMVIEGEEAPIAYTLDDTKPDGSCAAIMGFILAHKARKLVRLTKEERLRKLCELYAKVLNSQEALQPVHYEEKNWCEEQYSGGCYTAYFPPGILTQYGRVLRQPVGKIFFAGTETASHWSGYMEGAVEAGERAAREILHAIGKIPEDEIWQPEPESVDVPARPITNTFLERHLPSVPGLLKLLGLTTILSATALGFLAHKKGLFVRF

[3] = molecular target: Glutamate [NMDA] receptor (Homo sapiens) (UniProt Q05586+Q12879+Q13224+O15399+O60391+Q14957+Q8TCU5); experiment: Inhibition of MK-801 site of glutamate receptor at 100 nM; assay type: protein-complex assay
[4] = Inhibitory activity at calcium activated potassium channel 6 at 10 uM
[5] = Inhibitory activity at site 2 of sodium channel at 100 nM
[6] = molecular target: Leukotriene B4 receptor (Homo sapiens) (UniProt Q9NPC1+Q15722); experiment: Inhibition of leukotriene B4 at 100 nM; assay type: protein assay
[7] = molecular target: T2, Cysteinyl leukotriene receptor 1 (Homo sapiens) (UniProt Q9Y271); experiment: Inhibition of leukotriene D4 at 10 uM
T2 sequence (whole entry): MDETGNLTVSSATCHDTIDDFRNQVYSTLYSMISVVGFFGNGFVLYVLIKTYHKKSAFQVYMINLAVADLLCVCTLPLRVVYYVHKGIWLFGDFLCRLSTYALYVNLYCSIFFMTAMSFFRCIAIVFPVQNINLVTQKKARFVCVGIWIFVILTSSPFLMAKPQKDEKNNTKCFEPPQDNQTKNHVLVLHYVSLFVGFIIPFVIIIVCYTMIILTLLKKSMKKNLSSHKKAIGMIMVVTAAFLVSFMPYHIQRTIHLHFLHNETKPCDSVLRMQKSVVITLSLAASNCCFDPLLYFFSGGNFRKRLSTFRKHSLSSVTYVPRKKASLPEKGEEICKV

[8] = molecular target: Epidermal growth factor receptor (Homo sapiens) (UniProt P00533); experiment: Inhibition of EGFR at 10 uM
[9] = molecular target: Adenosine receptor (Homo sapiens) (UniProt P30542+P29275+P0DMS8+P29274); experiment: Inhibition of non selective binding to adenosine receptor at 100 nM; assay type: protein assay
[10] = molecular target: T3, 5-hydroxytryptamine receptor 2C (Rattus norvegicus, UniProt P08909); experiment: Activity against recombinant rat 5HT2C mediated intracellular calcium mobilization by FLIPR in SR3T3 cells
T3 sequence (P08909 whole entry): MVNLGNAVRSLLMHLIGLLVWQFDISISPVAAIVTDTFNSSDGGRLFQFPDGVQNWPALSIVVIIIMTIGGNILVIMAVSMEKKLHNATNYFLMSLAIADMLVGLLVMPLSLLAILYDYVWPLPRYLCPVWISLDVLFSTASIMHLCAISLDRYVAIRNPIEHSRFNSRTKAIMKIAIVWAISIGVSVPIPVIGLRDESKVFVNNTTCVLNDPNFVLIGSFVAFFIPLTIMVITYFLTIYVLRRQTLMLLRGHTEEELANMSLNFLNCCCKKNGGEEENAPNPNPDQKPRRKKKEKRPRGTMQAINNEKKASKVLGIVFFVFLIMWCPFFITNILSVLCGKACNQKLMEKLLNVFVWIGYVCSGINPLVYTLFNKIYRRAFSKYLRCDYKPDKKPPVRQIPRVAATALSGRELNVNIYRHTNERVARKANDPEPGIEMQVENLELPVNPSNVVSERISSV

[11] = molecular target: 5-hydroxytryptamine receptor 1B (Homo sapiens, UniProt P28222); experiment: Inhibitory activity against 5HT1B receptor
[12] = molecular target: Alpha-1A adrenergic receptor (Homo sapiens, UniProt P35348); experiment: Inhibitory activity against adrenergic alpha-1A receptor
[13] = molecular target: Alpha-1B adrenergic receptor (Homo sapiens, UniProt P35368); experiment: Inhibitory activity against adrenergic alpha-1B receptor
[14] = molecular target: Adrenergic receptor beta (Homo sapiens) (UniProt P08588+P07550+P13945); experiment: Inhibition of non selective binding to adrenergic beta receptor at 1 nM; assay type: protein assay
[15] = molecular target: Dopamine receptor (Homo sapiens) (UniProt P14416+P35462+P21918+P21917+P21728); experiment: Inhibition of non selective binding to dopamine receptor at 1 nM; assay type: protein assay
[16] = molecular target: T4, 5-hydroxytryptamine receptor 2C (Rattus norvegicus) (UniProt P08909); experiment: Activity against recombinant rat 5HT2C mediated intracellular calcium mobilization by FLIPR in SR3T3 cells
T4 sequence (whole entry): T3 sequence (P08909 whole entry)

Chain of Leukotriene B4 receptor (Homo sapiens) (Q15722 whole entry, looked up): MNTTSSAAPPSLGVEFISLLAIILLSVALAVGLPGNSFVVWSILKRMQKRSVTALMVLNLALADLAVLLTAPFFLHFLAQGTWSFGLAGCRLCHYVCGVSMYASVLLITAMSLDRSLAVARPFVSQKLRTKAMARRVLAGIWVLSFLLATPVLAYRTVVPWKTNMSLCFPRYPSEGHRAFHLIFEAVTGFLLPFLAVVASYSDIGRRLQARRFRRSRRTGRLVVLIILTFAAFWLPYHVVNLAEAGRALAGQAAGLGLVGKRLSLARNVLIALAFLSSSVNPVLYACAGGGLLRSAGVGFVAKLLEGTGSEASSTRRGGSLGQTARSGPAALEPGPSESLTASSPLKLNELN
Chain of Leukotriene B4 receptor (Homo sapiens) (Q9NPC1 whole entry, looked up): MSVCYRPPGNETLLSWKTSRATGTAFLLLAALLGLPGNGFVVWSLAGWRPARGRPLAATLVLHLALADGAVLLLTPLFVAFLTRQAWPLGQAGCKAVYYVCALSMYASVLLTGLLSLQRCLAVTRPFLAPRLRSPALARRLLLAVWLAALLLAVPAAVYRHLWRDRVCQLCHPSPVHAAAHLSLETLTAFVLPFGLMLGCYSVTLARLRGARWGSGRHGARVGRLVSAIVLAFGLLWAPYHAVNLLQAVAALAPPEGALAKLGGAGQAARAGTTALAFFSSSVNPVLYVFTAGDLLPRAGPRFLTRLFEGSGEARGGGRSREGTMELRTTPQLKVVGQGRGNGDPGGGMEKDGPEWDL
Chain of Epidermal growth factor receptor (Homo sapiens) (P00533 whole entry): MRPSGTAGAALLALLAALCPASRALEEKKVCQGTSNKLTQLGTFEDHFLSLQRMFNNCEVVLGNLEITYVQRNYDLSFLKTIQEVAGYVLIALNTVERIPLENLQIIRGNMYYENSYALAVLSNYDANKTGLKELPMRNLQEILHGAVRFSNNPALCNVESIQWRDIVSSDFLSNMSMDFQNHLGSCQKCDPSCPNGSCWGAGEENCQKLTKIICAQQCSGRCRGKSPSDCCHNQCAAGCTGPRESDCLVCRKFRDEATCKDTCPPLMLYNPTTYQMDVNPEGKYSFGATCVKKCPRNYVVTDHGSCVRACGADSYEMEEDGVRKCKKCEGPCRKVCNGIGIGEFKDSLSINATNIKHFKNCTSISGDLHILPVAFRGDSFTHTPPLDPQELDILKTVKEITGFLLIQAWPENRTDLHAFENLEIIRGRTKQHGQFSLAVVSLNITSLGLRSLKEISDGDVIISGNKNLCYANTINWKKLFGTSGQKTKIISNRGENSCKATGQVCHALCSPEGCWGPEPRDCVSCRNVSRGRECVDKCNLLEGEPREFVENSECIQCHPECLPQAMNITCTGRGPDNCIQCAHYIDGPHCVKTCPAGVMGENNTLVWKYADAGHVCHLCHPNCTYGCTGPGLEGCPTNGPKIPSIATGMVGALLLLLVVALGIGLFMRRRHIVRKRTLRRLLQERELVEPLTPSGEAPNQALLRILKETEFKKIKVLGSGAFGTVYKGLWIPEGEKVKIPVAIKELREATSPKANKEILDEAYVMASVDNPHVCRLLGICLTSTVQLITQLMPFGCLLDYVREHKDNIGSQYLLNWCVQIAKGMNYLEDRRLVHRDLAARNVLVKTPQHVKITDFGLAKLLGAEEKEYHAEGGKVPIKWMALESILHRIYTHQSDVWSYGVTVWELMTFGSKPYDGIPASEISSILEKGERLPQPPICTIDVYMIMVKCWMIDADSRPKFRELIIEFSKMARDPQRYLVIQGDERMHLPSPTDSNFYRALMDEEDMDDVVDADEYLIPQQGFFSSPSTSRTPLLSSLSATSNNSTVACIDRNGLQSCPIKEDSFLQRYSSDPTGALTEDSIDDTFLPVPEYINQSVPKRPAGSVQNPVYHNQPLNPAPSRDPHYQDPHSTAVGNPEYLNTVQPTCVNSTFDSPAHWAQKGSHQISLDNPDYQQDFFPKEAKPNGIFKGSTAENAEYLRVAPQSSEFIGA
Chain of 5-hydroxytryptamine receptor 1B (P28222 whole entry): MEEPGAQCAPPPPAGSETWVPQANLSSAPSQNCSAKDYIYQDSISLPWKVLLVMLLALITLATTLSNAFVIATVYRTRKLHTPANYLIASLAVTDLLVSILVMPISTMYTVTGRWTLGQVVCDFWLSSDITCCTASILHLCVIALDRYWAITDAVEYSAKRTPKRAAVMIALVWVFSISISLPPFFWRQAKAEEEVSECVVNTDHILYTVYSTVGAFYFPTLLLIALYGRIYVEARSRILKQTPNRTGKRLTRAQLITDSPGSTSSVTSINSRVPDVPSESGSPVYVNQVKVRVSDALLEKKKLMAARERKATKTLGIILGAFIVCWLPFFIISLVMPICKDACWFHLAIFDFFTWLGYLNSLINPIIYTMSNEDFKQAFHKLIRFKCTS
Chain of Alpha-1A adrenergic receptor (P35348 whole entry): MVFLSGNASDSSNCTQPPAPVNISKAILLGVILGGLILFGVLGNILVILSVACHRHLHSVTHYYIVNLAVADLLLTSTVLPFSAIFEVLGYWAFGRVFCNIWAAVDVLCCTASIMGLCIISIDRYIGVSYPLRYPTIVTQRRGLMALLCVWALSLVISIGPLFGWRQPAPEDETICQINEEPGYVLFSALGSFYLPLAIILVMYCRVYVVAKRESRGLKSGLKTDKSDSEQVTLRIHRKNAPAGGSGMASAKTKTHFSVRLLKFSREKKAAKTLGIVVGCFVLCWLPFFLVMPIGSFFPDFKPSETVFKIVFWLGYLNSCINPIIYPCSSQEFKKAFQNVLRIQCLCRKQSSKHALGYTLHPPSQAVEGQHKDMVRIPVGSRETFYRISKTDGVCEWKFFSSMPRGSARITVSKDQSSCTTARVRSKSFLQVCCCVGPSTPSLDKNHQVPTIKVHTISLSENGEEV
Chain of Adenosine receptor (Homo sapiens) (P0DMS8 whole entry, looked up): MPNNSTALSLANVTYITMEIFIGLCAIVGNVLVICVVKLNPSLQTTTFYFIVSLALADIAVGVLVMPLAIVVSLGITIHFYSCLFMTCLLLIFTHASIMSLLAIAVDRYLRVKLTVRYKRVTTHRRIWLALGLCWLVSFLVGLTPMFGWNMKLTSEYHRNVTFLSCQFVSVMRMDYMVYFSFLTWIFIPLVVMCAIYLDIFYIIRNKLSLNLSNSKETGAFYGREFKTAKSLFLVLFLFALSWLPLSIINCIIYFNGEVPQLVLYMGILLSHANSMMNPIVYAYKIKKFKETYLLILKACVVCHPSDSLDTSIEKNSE
Chain of Adenosine receptor (Homo sapiens) (P29274 whole entry, looked up): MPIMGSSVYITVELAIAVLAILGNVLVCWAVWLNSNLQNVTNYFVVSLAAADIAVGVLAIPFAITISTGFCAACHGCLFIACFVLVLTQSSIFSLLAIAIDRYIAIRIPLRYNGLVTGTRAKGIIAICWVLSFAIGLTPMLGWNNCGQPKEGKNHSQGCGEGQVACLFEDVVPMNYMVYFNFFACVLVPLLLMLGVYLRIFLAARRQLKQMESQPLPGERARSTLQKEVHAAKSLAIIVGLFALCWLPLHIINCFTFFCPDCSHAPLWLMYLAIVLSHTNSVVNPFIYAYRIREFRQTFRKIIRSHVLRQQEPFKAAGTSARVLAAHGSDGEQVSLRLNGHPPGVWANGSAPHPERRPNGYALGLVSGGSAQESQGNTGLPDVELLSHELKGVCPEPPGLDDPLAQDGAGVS
Chain of Adenosine receptor (Homo sapiens) (P29275 whole entry, looked up): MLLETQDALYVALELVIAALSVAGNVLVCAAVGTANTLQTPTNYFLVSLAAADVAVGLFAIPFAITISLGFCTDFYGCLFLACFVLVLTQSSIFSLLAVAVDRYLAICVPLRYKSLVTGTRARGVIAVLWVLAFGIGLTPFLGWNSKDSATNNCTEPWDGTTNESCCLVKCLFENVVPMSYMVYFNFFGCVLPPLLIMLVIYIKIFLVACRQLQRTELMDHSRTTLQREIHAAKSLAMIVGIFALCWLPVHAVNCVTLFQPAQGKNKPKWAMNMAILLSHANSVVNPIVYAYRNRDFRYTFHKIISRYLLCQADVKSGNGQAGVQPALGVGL
Chain of Adenosine receptor (Homo sapiens) (P30542 whole entry, looked up): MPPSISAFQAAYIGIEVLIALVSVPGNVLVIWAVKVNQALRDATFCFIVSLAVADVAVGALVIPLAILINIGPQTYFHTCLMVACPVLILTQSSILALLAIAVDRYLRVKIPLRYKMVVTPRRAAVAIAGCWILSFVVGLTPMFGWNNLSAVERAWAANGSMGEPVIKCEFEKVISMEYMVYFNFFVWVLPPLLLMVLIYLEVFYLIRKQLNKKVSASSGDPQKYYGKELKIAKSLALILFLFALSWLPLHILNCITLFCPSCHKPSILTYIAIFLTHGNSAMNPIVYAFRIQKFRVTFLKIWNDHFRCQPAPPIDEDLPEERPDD
Chain of Alpha-1B adrenergic receptor (P35368 whole entry): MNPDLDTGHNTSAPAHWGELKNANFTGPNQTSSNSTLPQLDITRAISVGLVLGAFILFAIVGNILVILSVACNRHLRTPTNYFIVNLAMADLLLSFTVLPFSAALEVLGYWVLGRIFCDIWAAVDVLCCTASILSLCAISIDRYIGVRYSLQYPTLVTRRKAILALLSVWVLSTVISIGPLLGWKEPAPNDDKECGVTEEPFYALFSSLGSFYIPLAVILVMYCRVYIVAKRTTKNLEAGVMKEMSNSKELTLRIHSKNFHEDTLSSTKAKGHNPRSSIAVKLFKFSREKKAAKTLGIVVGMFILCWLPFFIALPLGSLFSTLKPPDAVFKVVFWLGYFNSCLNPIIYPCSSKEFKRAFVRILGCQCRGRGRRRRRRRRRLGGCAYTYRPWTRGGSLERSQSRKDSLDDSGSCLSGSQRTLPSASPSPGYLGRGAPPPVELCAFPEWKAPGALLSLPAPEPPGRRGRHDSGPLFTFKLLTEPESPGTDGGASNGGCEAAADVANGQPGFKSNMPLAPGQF

**Q.** With `C[C@H](N)Cn1ncc2ccc(O)cc21` as the molecule, how does the inhibition [1] read?
**A.** 9.31%

**Q.** And the inhibition at 0.001 µM [2]?
**A.** -15.4%

**Q.** And the inhibition [3]?
**A.** 11.4%

**Q.** And the inhibition [4]?
**A.** -8.15%

**Q.** And the inhibition [5]?
**A.** 5.17%

**Q.** And the inhibition [6]?
**A.** 15.8%

**Q.** What about the inhibition [7] of the same molecule?
**A.** 0.07%

**Q.** And the inhibition [8]?
**A.** -5.17%

**Q.** What about the inhibition [9] of the same molecule?
**A.** 13.6%

**Q.** And the EC50 [10]?
**A.** 0.0037 µM

**Q.** And the Ki [11]?
**A.** > 10 µM

**Q.** What about the Ki [12] of the same molecule?
**A.** > 30 µM

**Q.** And the Ki [13]?
**A.** > 30 µM

**Q.** What about the inhibition [14] of the same molecule?
**A.** -5.75%

**Q.** What about the inhibition [15] of the same molecule?
**A.** 10.7%

**Q.** And the Emax [16]?
**A.** 89%
